Reference: patent US6828347B2, “Anti-viral multi-quinone compounds and regiospecific synthesis thereof” (Illinois Institute of Technology, priority 2002, dated 2004)

Columns and labels:
[1] = test system: retroviruses such as an HIV; settings: as disclosed in the Boyd et al. Patents; cited from earlier work
uninfected CEM-T4 cells = assay: Toxicity to uninfected CEM-T4 cells (MTT assay); assay type: cell-based; settings: day 8, MTT
Protocol: The assays desirably measure the concentration of the multi-quinone that allows for 50% survival of CEM-T4 cells infected with HIV-1 and the concentration of multi-quinone that kills 50% of uninfected CEM-T4 cells. One skilled in the art will appreciate that other known assays or tests for determining antiviral activity may be used.
The chlorohydroxybiquinone was tested for anti-HIV activity by the CEM-T4 cytoprotection assay which measures the inhibition of viral cytopathogenic effects. CEM-T4 cells used for the assay were maintained in RPMI-1640 culture medium containing 2 millimoles L-glutamine and 25 millimoles HEPES, and supplemented with 10% fetal bovine serum, 50 units/milliliter of penicillin G, and 50 microgram/milliliter streptomycin sulfate. The antiviral assays were performed in 96-well tissue culture plates. Cells were treated with polybrene at a concentration of 2 microgram/milliliter, and 1×10^4 cells were dispensed into each well. Appropriate concentrations of the biquinone were prepared in sterile DMSO and diluted with culture medium to the desired concentrations. Each dilution of test compound was added to multiple wells of cells, and the cells were incubated at 37° C. for one hour. Cells were then infected at a multiplicity of infection of 0.025 TCID50/cell by the addition of a diluted stock of the HTLV-IIIB strain of HIV-1. […]
Assay plates were incubated at 37° C. in a humidified 5% carbon dioxide (CO2) atmosphere and examined microscopically for toxicity and/or cytopathogenic effect. Once the viral cytopathogenic effect was maximal (the eighth day post-infection), the surviving cells in each test well were quantified using the MTT assay known in the art and described in Pauwels et al., “Rapid and Automated Tetrazolium-based Colorimetric Assay for the Detection of Anti-HIV Compounds,” J. Virol. […] When a dose-dependent effect for either anti-HIV activity or cytotoxicity was observed, values for the 50% effective dose were calculated using the dose-effect analysis software of Chou and Chou, available from Elsevier-Biosoft.

Row | Compound | antiviral activity (growth and replication of viruses) [1] | TD50 (concentration to cause reduction of cell growth by 50% of uninfected controls) (uninfected CEM-T4 cells) [µM]
1 | CC(C)=CCC[C@]1(C)C=Cc2c(ccc3c2C(=O)C(O)=C(C2=C(C4=C(O)C(=O)c5c(ccc6c5C=C[C@@](C)(CCC=C(C)C)O6)C4=O)C(=O)c4c(ccc5c4C=C[C@@](C)(CCC=C(C)C)O5)C2=O)C3=O)O1 [conocurvone] | inhibit the growth and replication of viruses | –
2 | COC1=C(C2=C(Cl)C(=O)c3ccccc3C2=O)C(=O)c2ccc3c(c2C1=O)C=C[C@@](C)(CCC=C(C)C)O3 [chloromethoxybiquinone, 8-(3-Chloro-1,4-dioxo-1,4-dihydro-napthalen-2-yl)-9-methoxy-3-methyl-3-(4-methyl-pent-3-enyl)-3H-benzo[f]chromene-7,10-dione] | – | 5.4
3 | COC1=C(C2=C(C3=C(O)C(=O)c4ccccc4C3=O)C(=O)c3ccccc3C2=O)C(=O)c2ccc3c(c2C1=O)C=CC(C)(C)O3 [trimeric quinone, 3-Hydroxy-3′-(9-methoxy-3,3-dimethyl-7,10-dioxo-7,10-dihydro-3H-benzo[f]chromen-8-yl)-2,2′-binaphthalenyl-1,4,1′,4′-tetraone] | – | 17
4 | CC(C)=CCC[C@]1(C)C=Cc2c(ccc3c2C(=O)C(O)=C(C2=C(Cl)C(=O)c4ccccc4C2=O)C3=O)O1 [chlorohydroxybiquinone, 8-(3-Chloro-1,4-dioxo-1,4-dihydronapthalen-2-yl)-9-hydroxy-3-methyl-3-(4-methyl-pent-3-enyl)-3H-benzo[f]chromene-7,10-dione] | – | 2.7
